Measured values published in the SangsterLogP compilation.

Columns and labels:
[1] = method code SF-AS, from DOI: 10.1021/jm00284a014, PMID: 5544400
[2] = method code SF, from DOI: 10.1248/yakushi1947.96.10_1169, PMID: 1033993; settings: pH 0.7
[3] = method code SF, from DOI: 10.1021/bk-1995-0606.ch005
[4] = method code SF, from DOI: 10.1002/1522-2675(20001004)83:10<2836::aid-hlca2836>3.0.co;2-g
[5] = method code SF-C, from DOI: 10.1021/ja00901a033
[6] = method code SF-RC, from Audran, M.; Chanal, J.; Berge, G.; Marignan, R. (1983). Binding-structure correlation of bovine serum albumin in a series of cresotinamides. International Journal of Pharmaceutics, 15(3)273-284.; settings: pH 1.0
[7] = method code SF-AS, from DOI: 10.1021/bi00730a008, PMID: 4688860
[8] = method code SF, from DOI: 10.1021/bk-1995-0606.ch004
[9] = method code SF-AS, from Korenman, Y.; Danilov, N. (1990). Extraction of alkyl salicylates from aqueous media. Journal of Applied Chemistry of the USSR, 63(1)125-129.
[10] = not given; remark: listed apart in the source
[11] = method code SF-AS, from DOI: 10.1002/jhet.5570150704
[12] = method code SF-AS, from DOI: 10.1016/j.bioorg.2006.09.003, PMID: 17078995; settings: pH 7.4
[13] = not given; remark: listed apart in the source
[14] = method code SF-GLC, from PMID: 6629728; settings: pH 7.4
[15] = method code SF-AS, from DOI: 10.1007/s001289900104, PMID: 8661852
[16] = method code SF-AS, from DOI: 10.1021/j150653a049
[17] = method code SF-GLC, from DOI: 10.1016/0378-4274(86)90173-6, PMID: 3952768
[18] = method code SF-AS, from DOI: 10.1248/cpb.32.2380
[19] = not given; remark: listed apart in the source
[20] = method code SF-AS, from DOI: 10.1016/0378-5173(90)90042-3
[21] = method code SF, from DOI: 10.1016/j.bmcl.2006.04.097, PMID: 16714112
[22] = not given; remark: listed apart in the source
[23] = not given; remark: listed apart in the source
[24] = not given; remark: listed apart in the source
[25] = method code SF-HPLC, from PMID: 3799213; settings: pH 4.0
[26] = method code SF-AS, from DOI: 10.1016/0005-2728(86)90252-5, PMID: 3015209; settings: pH 7.2
[27] = from Kurihara, N.; Yamakawa, K.; Fujita, T.; Nakajima, M. (1980). Studies on BHC isomers and related compounds. XXVI. Anaerobic degradation of tetra-, penta- and hexachlorocyclohexane isomers by rat liver …

With `O=c1[nH]c2ccccc2[nH]1` the logP [1] was 1.12.

Compound `CCC1(C2CCCCC2)C(=O)NC(=O)N(C)C1=O` (stereo not drawn) has a logD [2] of 2.

In the case of `COP(=S)(OC)Oc1ccc([N+](=O)[O-])cc1`, the logP [3] is reported as 2.86.

In the case of `Cc1ccc(CN)cc1`, the logD ([4]; pH 12.5) is reported as 1.58.

For `O=C(O)COc1ccc(I)cc1`, the logP [5] was 2.69.

For `CCCCNC(=O)c1cc(Br)cc(C)c1O`, the logD [6] was 4.21.

Work on `CC(=O)c1ccc(NC=O)cc1` yielded a logP [7] of 0.94.

With `CCOP(=O)(Oc1ccc(C#N)cc1)c1ccccc1` (stereo not drawn) the logP [8] was 2.44.

Work on `CCCNC(=O)c1cccnc1` yielded a logP of 0.66.

Work on `N#Cc1ccc(OCC(=O)O)cc1` yielded a logP [5] of 1.11.

Work on `CCCCOC(=O)c1ccccc1O` yielded a logP [9] of 4.63.

Work on `C1=C\CC/C=C\CC/1` yielded a logP [10] of 3.16.

For `Cc1nnc(-c2ccccn2)o1`, the logP [11] was 0.46.

`O=CNc1ccc(Cl)cc1` gave a logP [7] of 2.04.

Compound `Cc1noc(-c2ccccn2)n1` has a logP [11] of 0.89.

In the case of `COc1cc(CCOC(C)=O)ccc1O`, the logD [12] is reported as 1.5.

Compound `C1=CCCC=CCCC=CCC1` has a logP [10] of 4.12.

Compound `OCc1c(F)cccc1F` has a logP [13] of 1.12.

For `C1COC2CC2C1` (stereo not drawn), the logD [14] was 1.26.

Work on `C=CC1CCC2OC2C1` (stereo not drawn) yielded a logD [14] of 2.08.

With `O=[N+]([O-])c1c(Cl)nc(-c2ncncn2)nc1Cl` the logP [15] was 2.29.

In the case of `Nc1ccccc1-c1ccccc1`, the logD ([4]; pH 5.5) is reported as 2.64.

In the case of `CCNC(=O)c1cccnc1`, the logP is reported as 0.31.

For `OCc1cccc(O)c1`, the logP [16] was 0.5.

In the case of `CNC(=O)c1cc(Br)cc(C)c1O`, the logD [6] is reported as 3.51.

`CCCCCCCCCC(C)=O` gave a logP [17] of 4.09.

In the case of `NS(=O)(=O)c1cc2c(cc1C(F)(F)F)NCNS2(=O)=O`, the logP [18] is reported as 0.36.

Work on `CCCOC(=O)c1ccccc1O` yielded a logP [9] of 3.8.

With `NS(=O)(=O)c1cc2c(cc1Cl)N=CNS2(=O)=O` the logP [18] was -0.1.

`Nc1c(Cl)c(F)nc(OCC(=O)O)c1Cl` gave a logP [19] of 1.74.

Compound `CCCCOC(=O)c1cc(=O)[nH]c(=O)[nH]1` has a logP [20] of 1.33.

With `Ic1ccccc1C1=NCCO1` the logP [21] was 2.3.

`O=C(O)C(=O)Nc1ccc(Cl)cc1` showed a logP [22] of 2.08.

For `c1ccc2c(c1)CCCN2`, the logP [23] was 2.29.

Compound `CNc1ccc(C)cc1` has a logP [23] of 2.15.

Work on `O=C(O)CONC(=O)c1c(Cl)cccc1Cl` yielded a logP [22] of 0.83.

In the case of `N#Cc1c(Cl)cccc1Cl`, the logP [10] is reported as 2.65.

With `CCNc1nc(NCC)nc(SC)n1` the logP [24] was 2.63.

In the case of `Cc1ccc(O)c(CO)c1`, the logP [16] is reported as 0.97.

With `Oc1cc(O)nc(-c2ncncn2)n1` the logP [15] was 1.49.

`O=C(OCn1c(=O)[nH]cc(F)c1=O)Oc1ccccc1` gave a logD [25] of 1.11.

In the case of `Clc1cc(-c2ncncn2)c(Cl)nn1`, the logP [15] is reported as 0.84.

Compound `Cc1cc([N+](=O)[O-])ccc1NN=C(C#N)C#N` has a logD [26] of 1.85.

Compound `CC(C)c1cc(C(C)C)c(C(=O)O)c(C(C)C)c1` has a logP [19] of 4.05.

For `Cc1ccc(OCC(=O)O)cc1`, the logP [5] was 1.95.

In the case of `ClC1=C(Cl)C(Cl)C(Cl)C(Cl)C1Cl` (stereo not drawn), the logP [27] is reported as 4.31.

Work on `CCCC(C)CCC(C)=O` (stereo not drawn) yielded a logP [17] of 2.92.

Compound `Cc1nonc1-c1ccccn1` has a logP [11] of 2.09.
